Results taken from US12570666B2, “Furoindazole derivatives” (Bayer Aktiengesellschaft, priority 2019, dated 2026).

biological target: T1, human GPR84 receptor (Homo sapiens, UniProt Q9NQS5); assay: cAMP HTRF assay for identification of cellular GPR84 antagonists; format: cell-based; details: CHO-K1 cells stably expressing human GPR84; Forskolin + agonist 6-OAU (EC80); average or median values
T1 construct: frozen aliquots prepared by acCELLerate; host or cells: CHO-K1
Procedure, shortened: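 IC50 came from 4-parameter fits over 20 μM–0.07 nM (11 points, duplicate), normalized between DMSO (0%) and agonist-free (100% inhibition) wells. Readout: cAMP-d2/Eu-cryptate HTRF in hGPR84 CHO-K1 cells given forskolin plus agonist, compound preincubated 30 min at room temperature.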

T1 sequence (Q9NQS5 whole entry): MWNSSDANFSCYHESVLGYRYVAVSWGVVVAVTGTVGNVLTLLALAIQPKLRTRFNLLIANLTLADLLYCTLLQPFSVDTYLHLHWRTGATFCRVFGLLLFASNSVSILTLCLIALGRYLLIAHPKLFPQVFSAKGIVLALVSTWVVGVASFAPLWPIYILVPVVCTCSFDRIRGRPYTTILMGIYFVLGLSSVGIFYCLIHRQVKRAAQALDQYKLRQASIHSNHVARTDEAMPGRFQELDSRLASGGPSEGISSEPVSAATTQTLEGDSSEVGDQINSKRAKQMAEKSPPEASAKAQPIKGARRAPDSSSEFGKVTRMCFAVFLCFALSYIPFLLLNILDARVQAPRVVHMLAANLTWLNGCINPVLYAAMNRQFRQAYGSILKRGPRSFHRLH

First: Cc1ccc(Cn2cc3c(n2)-c2c(oc(C(=O)NC[C@@H]4COCCO4)c2C(F)(F)F)CC32CC2)cn1 [Example 212, N-{[(2R)-1,4-dioxan-2-yl]methyl}-2′-[(6-methylpyridin-3-yl)methyl]-8′-(trifluoromethyl)-2′,5′-dihydrospiro[cyclopropane-1,4′-furo[2,3-g]indazole]-7′-carboxamide]
Second: O=C(NC[C@@H]1COCCO1)c1oc2c(c1C(F)(F)F)-c1nn(Cc3ccncc3)cc1C1(CC1)C2 [Example 216, N-[(2R)-1,4-Dioxan-2-ylmethyl]-2′-(pyridin-4-ylmethyl)-8′-(trifluormethyl)-2′,5′-dihydrospiro[cyclopropan-1,4′-furo[2,3-g]indazol]-7′-carboxamide]
The IC50 of the first is 1.5-fold lower: 4 nM for the first, 6 nM for the second.

Compared with `COC(=O)N1CC(F)(Cn2cc3c(n2)-c2c(oc(C(=O)NC[C@@H]4CCCO4)c2C)CC3)C1` [Example 167, methyl 3-fluoro-3-[(8-methyl-7-{[(2S)-tetrahydrofuran-2-ylmethyl]carbamoyl}-4,5-dihydro-2H-furo[2,3-g]indazol-2-yl)methyl]azetidine-1-carboxylate], `Cc1c(C(=O)NC[C@@H]2CCCO2)oc2c1-c1nn(C[C@@H]3CN(C)CCO3)cc1CC2` [Example 103, 8-methyl-2-{[(2S)-4-methylmorpholin-2-yl]methyl}-N-[(2S)-tetrahydrofuran-2-ylmethyl]-4,5-dihydro-2H-furo[2,3-g]indazole-7-carboxamide] is 2.8-fold higher in IC50: 60 nM for the first, 170 nM for the second.

Going from `O=C(NC[C@H]1COCCO1)c1oc2c(c1C(F)(F)F)-c1nn(C[C@@H]3COCCO3)cc1CC2` [Example 301, 2-{[(2R)-1,4-dioxan-2-yl]methyl}-N-{[(2S)-1,4-dioxan-2-yl]methyl}-8-(trifluoromethyl)-4,5-dihydro-2H-furo[2,3-g]indazole-7-carboxamide] to `O=C(NC[C@@H]1COCCO1)c1oc2c(c1C(F)F)-c1nn(C[C@H]3COCCO3)cc1CC2` [Example 244, 8-(difluoromethyl)-N-{[(2R)-1,4-dioxan-2-yl]methyl}-2-{[(2S)-1,4-dioxan-2-yl]methyl}-4,5-dihydro-2H-furo[2,3-g]indazole-7-carboxamide], the IC50 falls from 723 nM to 53 nM (14-fold).

Compared with `O=C(NCCc1ccccn1)c1oc2c(c1C(F)(F)F)-c1nn(C[C@H]3COCCO3)cc1CC2` [Example 233, 2-[(2S)-1,4-Dioxan-2-ylmethyl]-N-[2-(pyridin-2-yl)ethyl]-8-(trifluormethyl)-4,5-dihydro-2H-furo[2,3-g]indazol-7-carboxamide], `O=C(NCc1nccs1)c1oc2c(c1C(F)(F)F)-c1nn(C[C@H]3COCCO3)cc1CC2` [Example 226, 2-[(2S)-1,4-Dioxan-2-ylmethyl]-N-(1,3-thiazol-2-ylmethyl)-8-(trifluormethyl)-4,5-dihydro-2H-furo[2,3-g]indazol-7-carboxamide] is 70-fold lower in IC50: 1120 nM for the first, 16 nM for the second.

Going from `Cc1c(C(=O)NCC2CCC(C)(C)O2)oc2c1-c1nn(C[C@H]3COCCO3)cc1C1(CC1)C2` (mixture of isomers) [Example 195] to `Cc1c(C(=O)NCC2CC(C)CO2)oc2c1-c1nn(C[C@H]3COCCO3)cc1C1(CC1)C2` (mixture of isomers) [Example 199], the IC50 rises from 29 nM to 79 nM (2.7-fold). The first is the more potent here.

Compared with `COCCNC(=O)c1oc2c(c1C)-c1nn(Cc3ccccn3)cc1CC2` [Example 29, N-(2-methoxyethyl)-8-methyl-2-(pyridin-2-ylmethyl)-4,5-dihydro-2H-furo[2,3-g]indazole-7-carboxamide], `Cc1c(C(=O)NCCc2ccccc2)oc2c1-c1nn(Cc3ccccn3)cc1CC2` [Example 42, 8-methyl-N-(2-phenylethyl)-2-(pyridin-2-ylmethyl)-4,5-dihydro-2H-furo[2,3-g]indazole-7-carboxamide] is 5.3-fold higher in IC50: 290 nM for the first, 1530 nM for the second. The first is the more potent here.

Going from `Cc1c(C(=O)NCC2CCCO2)oc2c1-c1nn(Cc3ccccn3)cc1CC2` (racemic) [Example 3, 8-methyl-2-(pyridin-2-ylmethyl)-N-[(2R/S)-tetrahydrofuran-2-ylmethyl]-4,5-dihydro-2H-furo[2,3-g]indazole-7-carboxamide] to `Cc1c(C(=O)NC[C@H]2CCCO2)oc2c1-c1nn(Cc3ccccn3)cc1CC2` [Example 3-1, 8-methyl-2-(pyridin-2-ylmethyl)-N-[(2R)-tetrahydrofuran-2-ylmethyl]-4,5-dihydro-2H-furo[2,3-g]indazole-7-carboxamide], the IC50 rises from 240 nM to 1160 nM (4.8-fold). The first is the more potent here.

Going from `O=C(NC[C@@H]1COCCO1)c1oc2c(c1C(F)(F)F)-c1nn(CC3CC3)cc1CC2` [Example 282, 2-(cyclopropylmethyl)-N-{[(2R)-1,4-dioxan-2-yl]methyl}-8-(trifluoromethyl)-4,5-dihydro-2H-furo[2,3-g]indazole-7-carboxamide] to `CC(=O)N1CCC(Cn2cc3c(n2)-c2c(oc(C(=O)NC[C@@H]4CCCO4)c2C(F)(F)F)CC3)CC1` [Example 305, 2-[(1-acetylpiperidin-4-yl)methyl]-N-{[(2S)-oxolan-2-yl]methyl}-8-(trifluoromethyl)-4,5-dihydro-2H-furo[2,3-g]indazole-7-carboxamide], the IC50 rises from 10 nM to 16 nM (1.6-fold). The first is the more potent here.

Going from `Cc1c(C(=O)NC[C@@H]2COCCO2)oc2c1-c1nn(Cc3ccccn3)cc1C1(CCC1)C2` [Example 134] to `Cc1ccc(Cn2cc3c(n2)-c2c(oc(C(=O)NC[C@@H]4COCCO4)c2C)CC3)nc1` [Example 65, N-[(2R)-1,4-dioxan-2-ylmethyl]-8-methyl-2-[(5-methylpyridin-2-yl)methyl]-4,5-dihydro-2H-furo[2,3-g]indazole-7-carboxamide], the IC50 falls from 43 nM to 26 nM (1.7-fold).

First: O=C(NC[C@@H]1CCCO1)c1oc2c(c1C(F)F)-c1nn(C[C@H]3COCCO3)cc1CC2 [Example 245, 8-(difluoromethyl)-2-{[(2S)-1,4-dioxan-2-yl]methyl}-N-{[(2S)-oxolan-2-yl]methyl}-4,5-dihydro-2H-furo[2,3-g]indazole-7-carboxamide]
Second: Cc1c(C(=O)NC[C@@H]2CCCO2)oc2c1-c1nn(Cc3ccc(C#N)cn3)cc1CC2 [Example 319, 2-[(5-cyanopyridin-2-yl)methyl]-8-methyl-N-{[(2S)-oxolan-2-yl]methyl}-4,5-dihydro-2H-furo[2,3-g]indazole-7-carboxamide]
The IC50 of the first is 18-fold lower: 61 nM for the first, 1120 nM for the second.

First: Cc1c(C(=O)NCc2cc(CN3CCOCC3)on2)oc2c1-c1nn(Cc3ccccn3)cc1CC2 [Example 11, 8-methyl-N-{[5-(morpholin-4-ylmethyl)-1,2-oxazol-3-yl]methyl}-2-(pyridin-2-ylmethyl)-4,5-dihydro-2H-furo[2,3-g]indazole-7-carboxamide]
Second: Cc1c(C(=O)NCc2ccon2)oc2c1-c1nn(CC3COc4ncccc4O3)cc1CC2 (single isomer, unassigned) [Example 55-1]
The IC50 of the first is higher: greater than 20000 nM for the first, 340 nM for the second.

Compared with `C[C@@H]1Cc2oc(C(=O)NCc3cn(C)cn3)c(C(F)(F)F)c2-c2nn(C[C@H]3COCCO3)cc21` (single isomer, unassigned) [Example 314, (4R or 4S)-2-{[(2S)-1,4-dioxan-2-yl]methyl}-4-methyl-N-[(1-methyl-1H-imidazol-4-yl)methyl]-8-(trifluoromethyl)-4,5-dihydro-2H-furo[2,3-g]indazole-7-carboxamide], `Cc1c(C(=O)NC[C@@H]2CCCO2)oc2c1-c1nn(C(C)(C)c3cccnc3)cc1CC2` [Example 289, 8-methyl-N-{[(2S)-oxolan-2-yl]methyl}-2-[2-(pyridin-3-yl)propan-2-yl]-4,5-dihydro-2H-furo[2,3-g]indazole-7-carboxamide] is 20-fold higher in IC50: 40 nM for the first, 801 nM for the second. The first is the more potent here.
